Test results: patent US20260091086A1, “POLYPEPTIDE COMBINATIONS AND USES THEREOF” (MEDIMMUNE LIMITED, priority 2024, published 2026)
Numbered stars: 1 amine (or outer) side, 2 acyl side, 3 side chain; on linkers, the order of the positions; unused ones are H or OH. Bridge positions count the residues as written; N and C are the ends. Square brackets hold non-standard residues; d marks the D form. Side chains are listed from the residue outwards. Ends that are not written are not given here. * marks the point of attachment. C18 diacid = O=C(O)CCCCCCCCCCCCCCCCC(=O)*; γGlu = O=C(O)[C@H](CCC(=O)[*:2])N[*:1]; αMeF = C[C@](N)(Cc1ccccc1)C(=O)O

Columns and labels:
DIO Sprague-Dawley rats [1] = experiment: Example 3: 28-day body weight study in DIO rats; type: in vivo, rat; conditions: day 28
Protocol: Study Design: Male DIO Sprague-Dawley rats were fed a high-fat diet (32.5% kcal fat, D12266B; Research Diets) for approximately 8 weeks prior to study start. Rats were dosed once daily SC for 28 days with Vehicle, GLP-1/GCG (1.5 nmol/kg or 5 nmol/kg), LAA (7.5 nmol/kg) or a combination of GLP-1/GCG and LAA (1.5 and 7.5 nmol/kg, or 5 nmol/kg and 7.5 nmol/kg, respectively) with an n=6/group. Body weight was monitored daily throughout the study. Data reported as mean±standard error of the mean (SEM); data analysis performed using GraphPad Prism-statistical analysis performed using One-way ANOVA with Tukey ad hoc analysis (*p<0.05, **p<0.01, ***0<0.001, ****p<0.0001). In this experiment, the LAA was that of SEQ ID NO: 11, and the GLP-1/GCG dual-agonist was cotadutide.

[2] = system: DIO male pair-housed rats; experiment: Example 3 additional study: 28-day body weight, food intake and organ weights in DIO rats; type: in vivo, rat
Protocol: (§1) Study design: DIO male pair-housed rats fed a 32.5% high-fat diet (D12266B) for 7 weeks reached a mean body weight (BW) of ˜595 g. Rats were dosed SC daily for 28 days with vehicle (Vh), GLP-1/GCG dual agonist (1.5 or 5 nmol/kg), LAA (2.5 or 7.5 nmol/kg), or combination (1.5+2.5 nmol/kg, 1.5+7.5 nmol/kg, 5+2.5 nmol/kg, or 5+7.5 nmol/kg, respectively). Food intake (FI) and BW were measured daily. In chow fed lean rats, gastric emptying (GE) was measured via X-ray fluoroscopic quantification following SC injections of Vh, GLP-1/GCG dual agonist at 1, 3, or 10 nmol/kg or LAA at 1, 3, or 10 nmol/kg. In a subsequent acute GE study, lean rats received a single dose of Vh, GLP-1/GCG dual agonist (2 nmol/kg), LAA (2 nmol/kg) or GLP-1/GCG dual agonist+LAA combination (2+2 nmol/kg). In this experiment, the LAA was that of SEQ ID NO: 11, and the GLP-1/GCG dual-agonist was cotadutide.

[3] = system: diet-induced obese (DIO) Sprague-Dawley rats; experiment: Example 2: 28-day combination study in DIO rats (body weight, EchoMRI body composition); type: in vivo, rat; conditions: LAA 10 nmol/kg, GLP-1/GCG 5.4 nmol/kg or both
Protocol: Study Design: Male diet-induced obese (DIO) Sprague-Dawley rats were fed a high fat diet (45% fat, D12451; Research Diets) for 34 weeks prior to study start. […] Research Diets). […] Average body weight for all DIO rats at start of study was 722.4+10.1 grams. Body composition was measured by EchoMRI on day-7 and day 26. In this experiment, the LAA was that of SEQ ID NO: 11, and the GLP-1/GCG dual-agonist was cotadutide. Data reported as mean±standard error of the mean (SEM); data analysis performed using GraphPad Prism-statistical analysis performed using One-way ANOVA with Tukey ad hoc analysis.

chow fed lean rats = experiment: Example 3: acute gastric emptying by X-ray fluoroscopic quantification; type: in vivo, rat; conditions: acute SC
Protocol: as §1

[4] = system: High-fat diet (DIO) fed rats; experiment: Example 9: 4-week LAA or DACRA monotherapy in DIO rats; type: in vivo, rat; conditions: for BW reduction compared to vehicle / reduction of cumulative food intake: 4 weeks; for proportion of body weight loss that was fat-mass specific: FIG. 8C
Text: Study 1 Design: High-fat diet (DIO) fed rats were used to profile LAA or DACRA monotherapy to evaluate food intake, body weight-lowering and body composition effects in a 4-week study. In this experiment, the LAA was that of SEQ ID NO: 11 and the DACRA was cagrilintide.

AMY3R/CTR [5] = experiment: Relative potency ratio, cAMP accumulation assays with 0.1% BSA, human receptors; type: cell-based; conditions: 0.1% bovine serum albumin, n ≥ 5; potencies relative to pramlintide 100%
rat calcitonin receptor = target: T1, rat calcitonin receptor (Rattus norvegicus, UniProt P32214); experiment: Target engagement estimate (unbound Cmax / unbound in vitro potency), calcitonin receptor; conditions: DACRA 10 nmol/kg vs LAA 30 nmol/kg
T1 construct: expressed in transfected cells; host or cells: HEK293
T1 sequence (P32214 25-516): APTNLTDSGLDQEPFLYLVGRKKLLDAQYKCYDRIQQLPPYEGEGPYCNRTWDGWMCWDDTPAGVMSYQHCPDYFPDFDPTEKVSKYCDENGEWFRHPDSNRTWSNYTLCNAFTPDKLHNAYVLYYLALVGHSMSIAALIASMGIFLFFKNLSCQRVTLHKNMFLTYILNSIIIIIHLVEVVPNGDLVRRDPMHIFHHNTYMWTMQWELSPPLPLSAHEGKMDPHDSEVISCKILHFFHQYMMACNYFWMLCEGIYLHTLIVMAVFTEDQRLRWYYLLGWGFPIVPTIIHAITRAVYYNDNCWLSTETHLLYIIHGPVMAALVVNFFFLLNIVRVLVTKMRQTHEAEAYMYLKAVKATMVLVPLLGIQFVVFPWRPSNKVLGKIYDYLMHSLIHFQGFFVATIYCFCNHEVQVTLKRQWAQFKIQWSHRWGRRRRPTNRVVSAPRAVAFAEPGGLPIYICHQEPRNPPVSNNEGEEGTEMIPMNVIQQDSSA
Protocol: Target engagement was estimated in the following way for each compound. The maximum concentration (Cmax) after subcutaneous injection was measured in separate rat pharmacokinetic studies and was dose-adjusted to the tested dose levels when appropriate, assuming dose linearity. Plasma protein binding was determined in vitro using 3B Pharmaceutical's Escalate Equilibrium Shift Assay or an in-house Surface Plasmon Resonance (SPR) assay. Peptide in vitro potency was determined via HTRF CAMP accumulation assay using HEK293 cells recombinantly expressing the rat calcitonin receptor or rat amylin receptor (calcitonin receptor plus RAMP3) in saline buffer containing 0.1% bovine serum albumin. The in vitro potencies (IC50s) for amylin and calcitonin were adjusted to unbound values by taking into account the albumin concentration in the assay and fraction unbound data, according to an established method (Wan H and Bergström F (2007), High Throughput Screening of Drug-Protein Binding in Drug Discovery, Journal of Liquid Chromatography & Related Technologies, 30:5, 681-700; doi: 10.1080/10826070701190989). Finally, the target engagement was calculated as the unbound Cmax divided by the unbound IC50, both for amylin and calcitonin. […] Uncertainty of parameter estimates was determined by bootstrapping, sampling single measurements randomly with replacement within each experiment (N=500). […]

AMY3R/CTR [6] = experiment: Relative potency ratio, cAMP accumulation assays with 0.1% BSA, rat receptors; type: cell-based; conditions: 0.1% bovine serum albumin, n ≥ 5; potencies relative to pramlintide 100%
Protocol: Target engagement was estimated in the following way for each compound. The maximum concentration (Cmax) after subcutaneous injection was measured in separate rat pharmacokinetic studies and was dose-adjusted to the tested dose levels when appropriate, assuming dose linearity. Plasma protein binding was determined in vitro using 3B Pharmaceutical's Escalate Equilibrium Shift Assay or an in-house Surface Plasmon Resonance (SPR) assay. Peptide in vitro potency was determined via HTRF CAMP accumulation assay using HEK293 cells recombinantly expressing the rat calcitonin receptor or rat amylin receptor (calcitonin receptor plus RAMP3) in saline buffer containing 0.1% bovine serum albumin. The in vitro potencies (IC50s) for amylin and calcitonin were adjusted to unbound values by taking into account the albumin concentration in the assay and fraction unbound data, according to an established method (Wan H and Bergström F (2007), High Throughput Screening of Drug-Protein Binding in Drug Discovery, Journal of Liquid Chromatography & Related Technologies, 30:5, 681-700; doi: 10.1080/10826070701190989). Finally, the target engagement was calculated as the unbound Cmax divided by the unbound IC50, both for amylin and calcitonin. The Emax model was defined as aversion=E0+Emax×(ENG^h/(ENG^h+ED50^h)), where E0 is the baseline aversion, Emax is the maximum induced aversion, ENG is the receptor engagement, and h is the slope (Hill) parameter. Parameter estimation was performed according to a maximum likelihood approach with an additive error model, incorporating data from all compounds simultaneously. Uncertainty of parameter estimates was determined by bootstrapping, sampling single measurements randomly with replacement within each experiment (N=500). Numeric analyses were performed in MATLAB (R2023b; The MathWorks, Natick, MA). The aversion data are given as mean and standard error (N=9-11 per group). In this experiment, the LAA/SARA1 was that of SEQ ID NO: 11, SARA2 was eloralintide, DACRA1 was cagrilintide, and DACRA2 was petrelintide.

DIO Sprague-Dawley rats [7] = experiment: Example 5: 19-day Q2D body weight study with Fc-linked agonists; type: in vivo, rat; conditions: mono-treatment 0.1 mg/kg Q2D SC, 19 days
Protocol: Study Design: Male DIO Sprague-Dawley rats were fed a high-fat diet (32.5% kcal fat, D12266B; Research Diets) for approximately 6 weeks prior to study start. Rats were dosed every other day (Q2D) SC for 19 days with Vehicle, GLP1-Fc (0.1 or 1 mg/kg), Fc-LAA (0.1 or 2 mg/kg) or a combination of GLP1-Fc and Fc-LAA (0.1+0.1 mg/kg, 0.1+2 mg/kg, 1+0.1 mg/kg or 1+2 mg/kg respectively) with an n=7/group. Body weight was monitored daily through-out study and shown below as % change of vehicle treatment. Data reported as mean±standard error of the mean (SEM). In this experiment, the LAA was an Fc-Amylin, and the GLP-1 agonist was dulaglutide (a GLP-1 agonist covalently linked to an Fc fragment of IgG4).

[8] = target: T2, rat amylin receptor (calcitonin receptor plus RAMP3) (rat, UniProt P32214 25-516; Q9JJ73 23-147); experiment: cell-based or functional assay
T2 sequence (looked up) 1: T1 sequence (P32214 25-516)
T2 sequence (looked up) 2: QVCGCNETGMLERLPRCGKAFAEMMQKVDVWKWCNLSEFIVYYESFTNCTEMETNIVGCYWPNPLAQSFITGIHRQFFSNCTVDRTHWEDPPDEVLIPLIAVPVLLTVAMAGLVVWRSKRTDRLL

[9] = target: human amylin receptor 3 (hAMY3R; complex of hCTR and hRAMP3) (human, UniProt P30825 2-629; O60896 24-148, limits assumed); experiment: cell-based or functional assay
human amylin receptor 3 (hAMY3R; complex of hCTR and hRAMP3), sequence (P30825 2-629 limits assumed, chain 1 of 2): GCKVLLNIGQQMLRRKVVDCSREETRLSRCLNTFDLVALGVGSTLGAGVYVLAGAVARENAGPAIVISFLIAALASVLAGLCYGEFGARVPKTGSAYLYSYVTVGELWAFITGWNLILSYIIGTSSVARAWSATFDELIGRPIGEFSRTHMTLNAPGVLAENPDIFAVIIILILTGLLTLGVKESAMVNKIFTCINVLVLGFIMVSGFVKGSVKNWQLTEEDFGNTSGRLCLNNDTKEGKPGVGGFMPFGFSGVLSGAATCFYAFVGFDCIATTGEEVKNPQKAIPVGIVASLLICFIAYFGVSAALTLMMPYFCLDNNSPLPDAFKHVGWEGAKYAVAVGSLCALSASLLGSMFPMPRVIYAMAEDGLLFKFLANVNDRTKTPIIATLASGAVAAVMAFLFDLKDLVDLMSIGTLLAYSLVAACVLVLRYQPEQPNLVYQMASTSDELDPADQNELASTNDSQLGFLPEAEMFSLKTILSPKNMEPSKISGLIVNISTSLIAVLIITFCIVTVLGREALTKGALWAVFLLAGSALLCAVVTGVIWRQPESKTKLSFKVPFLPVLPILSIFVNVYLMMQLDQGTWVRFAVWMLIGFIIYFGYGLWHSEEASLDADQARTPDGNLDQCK
human amylin receptor 3 (hAMY3R; complex of hCTR and hRAMP3), sequence (O60896 24-148 limits assumed, chain 2 of 2): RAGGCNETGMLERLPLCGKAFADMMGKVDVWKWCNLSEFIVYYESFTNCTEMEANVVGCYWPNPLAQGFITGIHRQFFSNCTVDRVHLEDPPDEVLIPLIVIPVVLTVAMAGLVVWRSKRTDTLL

“HSQGTFTSD-X10-SEYLDSERARDFVAWLEAGG-acid, wherein X10=Lys[ε-γE-Palmitoyl] [GLP-1/GCG]” was tested, and the “mean change in body weight normalized to Vehicle” value (DIO Sprague-Dawley rats [1]; GLP-1/GCG 1.5 nmol/kg SC QD) was −8.4%, the “mean change in body weight normalized to Vehicle” value (DIO Sprague-Dawley rats [1]; GLP-1/GCG 5 nmol/kg SC QD) was −25% and the “Vh corrected BW change (BW gain)” value ([2]; 28 days SC daily, GLP-1/GCG dual agonist 1.5 nmol/kg) was −8.4%. For the same molecule, the “Vh corrected BW change (BW gain)” value ([2]; 28 days SC daily, GLP-1/GCG dual agonist 5 nmol/kg) was −25.0%, the “Cumulative FI normalized to Vh” value ([2]; 28 days SC daily, monotherapy and combination groups) was “decreased in a dose-dependent manner” and the “Liver lipids (%) vs Vh” value ([2]; all GLP-1/GCG dual agonist 5 nmol/kg treated groups) was “lower than Vh”. The “Liver weights vs. Vh” value ([2]; all combination groups, GLP-1/GCG dual agonist monotherapy at 5 nmol/kg) was “Liver weights decreased”, the “body weight loss vs Vehicle” value ([3]; SC QD, FIG. 1A) was “lost significantly more body weight than Vehicle treated rats” and the “fat mass change (EchoMRI)” value ([3]; day 26) was “lost both fat and lean mass compared to Vehicle treated animals”. For the same molecule, the “lean mass change (EchoMRI)” value ([3]; day 26) was “lost both fat and lean mass compared to Vehicle treated animals”, the “GE AUC as % of Vehicle” value (chow fed lean rats; 1 nmol/kg) was 85% and the “GE AUC as % of Vehicle” value (chow fed lean rats; 3 nmol/kg) was 49%. For the same molecule, the “GE AUC as % of Vehicle” value (chow fed lean rats; 10 nmol/kg) was 24%.

In the case of cagrilintide [DACRA], the “BW reduction compared to vehicle” value ([4]; 1 nmol/kg) is reported as −3±0.6%, the “reduction of cumulative food intake” value ([4]; 1 nmol/kg) is reported as −7.1±2.1 % of vehicle and the “BW reduction compared to vehicle” value ([4]; 3 nmol/kg) is reported as −5.3±1.1%. For the same molecule, the “reduction of cumulative food intake” value ([4]; 3 nmol/kg) was −16±2.5 % of vehicle, the “BW reduction compared to vehicle” value ([4]; 10 nmol/kg) was −8.8±1.4% and the “reduction of cumulative food intake” value ([4]; 10 nmol/kg) was −23.9±3.5 % of vehicle. For the same molecule, the “BW reduction compared to vehicle” value ([4]; 20 nmol/kg) was −11.6±0.9%, the “reduction of cumulative food intake” value ([4]; 20 nmol/kg) was −23.7±1.1 % of vehicle and the fat-mass loss ([4]; end of study, 10 nmol/kg) was -15.5 ± 6.0 g. For the same molecule, the “proportion of body weight loss that was fat-mass specific” value ([4]; end of study, 10 nmol/kg) was 54%, the “proportion of body weight loss that was fat-mass specific” value ([4]; end of study, 20 nmol/kg) was 61% and the lean mass ([4]; end of study, FIG. 8B) was “Lean mass was preserved in the LAA groups, unlike in the DACRA groups”. The “Relative potency ratio (AMY3R/CTR), Human” value (AMY3R/CTR [5]) was 0.08, the “calcitonin engagement, fold more than LAA” value (rat calcitonin receptor) was 2-3 fold and the “Relative potency ratio (AMY3R/CTR), Rat” value (AMY3R/CTR [6]) was 0.01.

For dulaglutide [GLP1-Fc], the “body weight change normalized to vehicle” value (DIO Sprague-Dawley rats [7]) was 1.0%.

For K([γGlu-γGlu-C18 diacid])CNTATCATQRLANFLRHSSNN[αMeF]GPILPPTEVGSNTY-NH2 (disulfide 2-7) [LAA/SARA 1 (lipidated pramlintide analogue of SEQ ID NO: 11)], the “Relative potency ratio (AMY3R/CTR), Rat; cAMP accumulation assay, 0.1% BSA” value [8] was 1.6 ratio and the “Relative potency ratio (AMY3R/CTR), Human; cAMP accumulation assay, 0.1% BSA” value [9] was 0.9 ratio.

KCNTATCATQRLANFLVHSSNNFGPILPPTNVGSNTY-NH2 (disulfide 2-7) [Pramlintide] was tested, and the “Relative potency ratio (AMY3R/CTR), Rat; cAMP accumulation assay, 0.1% BSA” value [8] was 1 ratio and the “Relative potency ratio (AMY3R/CTR), Human; cAMP accumulation assay, 0.1% BSA” value [9] was 1 ratio.
